Test: in vitro
Conditions: human, hela cells

Row | Structure (SMILES) | viability at 28.5 h, 10 µM [%]
1 | O=C(O)c1cc(NC(=O)c2ccc3c(c2)C(=O)N(Cc2ccco2)C3=O)cc(C(=O)O)c1 [CBK267374] | 101

Same assay, conditions: human, hela cells, % viability

Row | Structure (SMILES) | viability at 28.5 h, 10 µM [%]
2 | CC(C)(C)c1cn(C[C@H]2CC3CCN2C[C@@H]3C(=O)Nc2nccs2)nn1 (stereo partly drawn) [CBK288737] | 87
3 | CC(=O)N1CC[C@@H]2NC(=O)[C@H]3C[C@H](NC(=O)c4ccc(F)c(Cl)c4)CN3C(=O)[C@H]21 [CBK289270] | 87
4 | O=C(NCc1cccs1)C1(Cc2ccc(-c3ccc(F)c(F)c3)cc2)CCOCC1 [CBK285533] | 99.5
5 | Cc1ccc(NC(=S)NCCc2ccc(S(N)(=O)=O)cc2)c(C)c1 [CBK264870] | 93.9
6 | N#CC1=C(N)Oc2cc(N)ccc2C1c1ccc(-c2ccccc2)cc1 (stereo not drawn) [CBK261605] | 91.3
7 | CN(C)CCCC(=O)Nc1ccc2ncccc2c1 [CBK159824] | 83.4
8 | COc1ccc(-n2cc(-c3ccccn3)nn2)cc1OC [CBK113133] | 103
9 | COCCOCN1C(=O)CC2(C1=O)C(=O)N(CC(=O)O)c1ccc(F)cc12 (stereo not drawn) [CBK076163] | 90.5
10 | Nc1ncc(-c2cccc(/C=C/C(=O)O)c2)nc1N1CCN(CCO)CC1 [CBK063665] | 98.7
11 | CCCNc1nccnc1-c1cccc(CO)c1 [CBK088897] | 91.5
12 | COC(=O)c1ccccc1NC(=O)c1cc2nc(-c3cccs3)cc(C(F)(F)F)n2n1 [CBK262524] | 88
13 | COCCCN1C(=O)C(O)=C(C(=O)c2ccc(C)o2)C1c1ccc(Br)cc1 (stereo not drawn) [CBK264876] | 90.9
14 | Cc1csc(C2CN(Cc3ccn(C)c(=O)c3)CCO2)n1 (stereo not drawn) [CBK305763] | 91.4
15 | C[C@]12CN(C(=O)C3CCCC3)C[C@H]1NC(=O)c1ccccc1C2=O [CBK281672] | 95.4
16 | Cn1cc(CNC(=O)Nc2cc(C(=O)N3CCOCC3)ccc2Cl)cn1 [CBK307080] | 83.4
17 | CCOC(=O)CCCNC(=O)N1CCCC(CO)C1 (stereo not drawn) [CBK156344] | 102
18 | C=CCN1C(=O)C2(CC(=O)N(CCCN(C)S(C)(=O)=O)C2=O)c2cc(F)ccc21 (stereo not drawn) [CBK075319] | 100
19 | O=C(NC1CCN(CC(F)(F)F)C1=O)c1ccnc(C2CC2)n1 (stereo not drawn) [CBK306268] | 97
20 | Nc1cc(N)nc(SCC(=O)Nc2ccc(Oc3ccccc3)cc2)n1 [CBK266749] | 95
21 | CCOC(=O)N1CCN(C(C(=O)O)c2c[nH]c3cc(OCc4ccccc4)ccc23)CC1 (stereo not drawn) [CBK286689] | 97
22 | O=C(NCc1ccc(Cl)cc1)c1cnc(-c2cccc(C(F)(F)F)c2)c(-c2ccncc2)c1 [CBK037607] | 84.8

Row | Structure (SMILES) | viability at 28.5 h, 10 µM [%]
23 | COc1ccc(C(=O)N[C@H]2CO[C@H]3[C@@H]2OC[C@H]3OC(=O)Nc2ccccc2)cc1 [CBK289463] | 103
24 | O=C(O)c1cc(S(=O)(=O)Nc2ccc3cc(Br)cnc3n2)c(F)cc1Cl [CBK073898] | 92.2
25 | CC(C)(C)NC(=O)Cn1cncc1-c1cnn(-c2ccccc2)c1 [CBK281697] | 106
26 | COc1cc(NC(=O)Nc2ccc3ccc(Cl)nc3n2)cc(OC)c1OC [CBK115933] | 82.9
27 | O=C(O)c1ccc(CN2CCOCC2)o1 [CBK261426C] | 90.7
28 | COc1ccc(OC)c(C2C(C(=O)c3ccccc3)=C(O)C(=O)N2CCN2CCOCC2)c1 (stereo not drawn) [CBK264748] | 114
29 | Cc1ccc(-c2ccc(/C=C(\C#N)c3nc(-c4ccco4)cs3)o2)c([N+](=O)[O-])c1 [CBK266685] | 96
30 | Cc1ccc2c(c1)N(CC(N)=O)C(=O)CO2 [CBK270208] | 92.9
31 | CCN(C(=O)CC1SC(NCC2CCCCC2)=NC1=O)c1ccccc1 (stereo not drawn) [CBK067373] | 89.3
32 | COc1ccc(CN2CCC3(CCc4ccccc4C(=O)N3)C2)cc1 (stereo not drawn) [CBK283339] | 97.6
33 | O=C(c1ccncc1)N1CCN(S(=O)(=O)c2ccccc2[N+](=O)[O-])CC1 [CBK264196] | 92.6
34 | O=C(O)CC(NCc1ccco1)C(=O)Nc1cccc(F)c1 (stereo not drawn) [CBK286910] | 97
35 | O=C(O)C1CNC(=O)N1C(=O)OCc1ccccc1 (stereo not drawn) [CBK057462] | 98.8
36 | CCc1n[nH]c(C(=O)NCC(c2ccc(F)cc2)N2CCCC2)c1C (stereo not drawn) [CBK282630] | 85.8
37 | Cc1nc(CN2CCCC(NCc3cccc(C(N)=O)c3)C2)no1 (stereo not drawn) [CBK304929] | 94.2
38 | N#Cc1cc2c(nc1SCC(O)COCc1ccccc1)CCCC2 (stereo not drawn) [CBK265967] | 104
39 | Cn1c(=O)n(CC(=O)NCc2cccc(F)c2)c2cccnc21 [CBK283911] | 105
40 | O=C(c1c(F)cc(-c2cncc(-c3ccc(O)cc3)n2)cc1F)N1CCOCC1 [CBK131973] | 90.5
41 | c1nc(OC2CCOC2)cc(N2CCCC2)n1 (stereo not drawn) [CBK115899] | 88.4
42 | CN(Cc1cccc2ncccc12)C(=O)c1cc(C2CC2)nn1C [CBK282537] | 108
43 | C=CCN(C)C(=O)[C@H]1C[C@@H](O)[C@H](O)[C@@H]2N=C(Nc3cc(C)cc(C)c3)S[C@@H]21 [CBK288948] | 94.2

Row | Structure (SMILES) | viability at 28.5 h, 10 µM [%]
44 | Cc1ccc(CN(CCCN2CCOCC2)Cc2ccoc2)o1 [CBK283234] | 81
45 | COc1ccc(-n2c(CNCc3ccc4c(c3)OCO4)nc3ccccc3c2=O)cc1 [CBK074522] | 102
46 | CC(OC(=O)C1CCCCC1)c1nc2ccccc2[nH]1 (stereo not drawn) [CBK111483] | 107
47 | c1csc(CNc2nccnc2-c2ccoc2)c1 [CBK036599] | 107
48 | Fc1cccc(-c2nccnc2NCCc2c[nH]c3ccccc23)c1 [CBK036861] | 96.7
49 | Cc1nc2ccc(C(=O)NC3CCN(Cc4ccccc4)CC3)cn2c1N(C)C(=O)c1cccs1 [CBK146529] | 99.9
50 | CSc1cc(C)c(O)c(CO)c1 [CBK020687] | 85.7
51 | O=C1N[C@@]2(CC3CCC2CC3C(=O)NC2CC2)Nc2ccccc21 (stereo partly drawn) [CBK284454] | 85.9
52 | c1ccc(-c2ccccc2CN2CCN(c3nccnc3OCCN3CCOCC3)CC2)cc1 [CBK082893T] | 90.7
53 | Cc1cc(C)c(C)c(C(=O)COC(=O)c2cc(O)nc3ccccc23)c1C [CBK264066] | 94.8
54 | Cn1nccc1CN1CCCC(Cc2nc3ccccc3[nH]2)C1 (stereo not drawn) [CBK281892] | 98.2
55 | Cc1nnc(N/N=C/c2cn(Cc3c(F)cccc3Cl)c3ccccc23)n1N [CBK278277C] | 86.8
56 | CC1=CC(C)C(CNCCN2CCNCC2)C(C)C1 (stereo not drawn) [CBK262832] | 90
57 | O=C(O)c1ccc(S(=O)(=O)c2ccc3c(c2)C(=O)N(c2ccc(Sc4ccc([N+](=O)[O-])cc4)cc2)C3=O)cc1 [CBK262869] | 104
58 | O=C(c1cccnc1)C1CCN(C(=O)Cc2ccc(Cl)cc2)CC1 [CBK283813] | 80.4
59 | NC(=O)c1ccc(NC(=O)COc2ccccc2Cl)cc1 [CBK262961] | 109
60 | COc1cc(-c2ccc3ccc(=O)[nH]c3n2)cc(OC)c1OC [CBK073721] | 98.8
61 | COc1cc(Nc2cccc(-c3cccc(NC(C)=O)c3)n2)cc(OC)c1OC [CBK037698] | 111
62 | O=C(c1csc2c1CCCC2)N1CCC(O)(c2ccccn2)CC1 [CBK282397] | 107
63 | Cc1cccc(OCC(=O)Nc2ncn(Cc3cccnc3)n2)c1 [CBK304919] | 95.9
64 | CN(C)CC/C=C1/c2ccccc2COc2ccc(CC(=O)O)cc21 [CBK200992] | 92.4

Row | Structure (SMILES) | viability at 28.5 h, 10 µM [%]
65 | COc1cc(-c2cncc(NCc3ccco3)n2)cc(OC)c1OC [CBK065259] | 99.9
66 | C[C@H]1[C@@H]2[C@@H](O)C([C@H](C)C(=O)N3CCCCC3)CC[C@@]2(C)CC[C@@H]1NC(=O)C1CC1 (stereo partly drawn) [CBK289446] | 106
67 | Cc1nc(NC(=O)CN2CCN(c3cccc(Cl)c3)CC2)sc1C [CBK305902] | 88.5
68 | Cc1cccc(CN2CCN(c3ccccc3C(O)c3nccn3C)CC2)c1 (stereo not drawn) [CBK286441] | 88.5
69 | CC(NC(=O)c1ncoc1-c1ccc(F)cc1)c1ccncc1 (stereo not drawn) [CBK282319] | 100
70 | O=C(NC1Cc2ccccc2C1)c1ccc2ncccc2c1 [CBK200354] | 96.2
71 | CC(=O)c1cccc(NC(=O)N(CCO)C2CCc3ccccc32)c1 (stereo not drawn) [CBK305517] | 93.4
72 | CSc1ccc(CNC(=O)c2ccc(Cl)cc2)s1 [CBK057705] | 89.4
73 | CC(C)CC(C(=O)O)N1C(=O)/C(=C2/C(=O)Nc3ccc(Br)cc32)SC1=S (stereo not drawn) [CBK261610] | 84.7
74 | O=C(Cc1cccs1)Nc1cccc(C(=O)Nc2cccc(C(=O)O)c2)c1 [CBK268509] | 105
75 | O=C(NCCc1cccs1)Nc1cccc(SC(F)(F)F)c1 [CBK044999] | 95
76 | Nc1nc(SCCCC(=O)NC2CCCCC2)nc2sc3c(c12)CCCC3 [CBK266176] | 99.7
77 | CCN(CC)S(=O)(=O)c1ccc(OC)c(NC(=O)C2c3ccccc3Oc3ccccc32)c1 [CBK264774] | 101
78 | O=C(Cc1ccc([N+](=O)[O-])cc1)N/N=C/c1ccc(O)cc1 [CBK262152] | 84.5
79 | CN(C)c1cccc(Nc2ccc(-c3cccc(C(=O)O)c3)cn2)c1 [CBK036879] | 101
80 | CCN(CC)CCn1c(=N)n(CC(=O)c2cccs2)c2ccccc21 [CBK278240B] | 85.1
81 | COc1ccc(CN2CCN(c3ccccc3F)CC2)cc1OCc1ccccc1 [CBK261900] | 115
82 | CCc1nnc(SCC(=O)Nc2ccc(CN3CCOCC3)cc2)[nH]1 [CBK306097] | 84.7
83 | Nc1ncc(-c2ccncc2)nc1NC1CCCCC1 [CBK063604] | 80.9
84 | CCOc1cccc(NC(=O)/C(C#N)=C\c2cc(C)n(-c3cccc(C(=O)O)c3)c2C)c1 [CBK263186] | 115
85 | Clc1ccc(-c2nc(C3CCN(CCc4ccccc4)CC3)n3ccccc23)cc1 [CBK035316] | 90.7

Same assay, conditions: human, hela cells, % viability, bulk resorufin, single well

Row | Structure (SMILES) | viability at 28.5 h, 10 µM [%]
86 | COc1cc(C(=O)Nc2ccc3c(c2)COC2(CCNCC2)O3)cc(OC)c1OC [CBK091531T] | 92.3
87 | CN1CCN(c2ccc(C=C3C(=O)NC(=S)NC3=O)o2)CC1 [CBK264367] | 98.6

From PMC12040169 (PLOS Biology, 2025)
